The target in test [1] is nerve growth factor (NGF) (Homo sapiens, UniProt P01138). Put plainly: ELISA of NGF binding to immobilized biotinylated glycopeptides. The conditions noted are these: glycopeptide immobilized on streptavidin plate, NGF 0-60 nM, result in words.
Protocol: The new plate was rinsed three times with PBS containing 0.05% Tween 20 and one time with PBS before the experiment. 100 μL of biotinylated glycopeptide solutions (0.5 μM) were added to required wells in the Pierce Streptavidin Coated High Binding Capacity plates (#15501), and incubated overnight at room temperature. After immobilization of glycopeptides, the plates were rinsed three times with PBS containing 0.05% Tween 20 and one time with PBS. The surface was then blocked with 125 μL of 3% BSA in PBS for 1 hr, followed by rinsing three times with PBS containing 0.05% Tween 20 and one time with PBS. 100 μL of varying concentrations (0 nM, 10 nM, 20 nM, 30 nM, 40 nM, 50 nM and 60 nM) of NGF in PBS containing 1% BSA was added to the wells and incubated for 2 hrs at 37° C. […]
The wells were then incubated with anti-NGF labeled with HRP in PBS containing 1% BSA. Absorbance signal was then developed with 100 μL of TMB Substrate from Thermo Scientific Pierce (#0034021) for 20 to 30 min before quenching with 100 μL of 2M H2SO4. Absorbance at 450 nm was then measured.
To evaluate the ability of the glycopeptides to interact with protein receptors, the binding affinity of each agent with nerve growth factor (NGF), which is known to bind CS-E sulfation motif selectively,^[9] was examined by ELISA. […] The amount of glycopeptide-bound NGF was measured by HRP-conjugated polyclonal NGF antibody.
In another test the test system is PC12 cells. Conditions: NGF 4 ng/ml, glycopeptide 10 μM, 72 hr, compared to NGF-only control. How it is done: Rat pheochromocytoma (PC12) cells were maintained in T75 tissue culture flask in complete RPMI 1640 growth medium containing 10% heat-inactivated horse serum (HI-HS), 5% fetal bovine serum (FBS) and 1% penicillin/streptomycin. Stock cultures from liquid nitrogen were grown at 37° C. with 5% CO2 in a humidified chamber for 72 hr before experiments.
13 mm glass coverslips were submerged in 65% nitric acid for at least three days. The coverslips were washed with distilled water, 70% ethanol and 100% ethanol 3× each for 30 minutes with gentle rocking. The coverslips were dried in the cell culture hood overnight with UV sterilization. For coating, 60 μl of laminin solution (25 μg/ml in sterile PBS) was added to each coverslip, followed by 2 hr incubation at 37° C. The coverslips were rinsed 3× with PBS and dried in the hood before use.
PC12 cells were seeded on laminin-coated coverslips at a density of 100 cells/mm^2 in RPMI 1640 differentiation medium containing 1% HI-HS. Cells were allowed to attach to the surface for 1 hr at 37° C. The coverslips were transferred to 24-well plates and the cells were incubated with fresh differentiation medium for 1 hr. Glycopeptides were incubated with NGF in differentiation medium for 1 hr at room temperature before adding to the cells together. At the end of culture period, the cells were fixed with 4% formaldehyde solution for 15 minutes at room temperature and rinsed 2× with PBS. All experiments were repeated three times and done in duplicate each time. For each treatment, 400-500 randomly selected single cells were counted. The percentage of neurite-bearing cells was determined by counting the number of cells with neurite length at least one cell body long.

The next test deals with NGF (Homo sapiens, UniProt P01138). Conditions: two-state kinetic model, 25° C., NGF 11-185 nM. Here is the method:
Affinity measurements were performed using a Biacore T100 system (GE Heathcare). The CM5 sensor chip was used for all measurements. At first, the instrument was primed with HBS-EP+ (GE Heathcare) buffer. Then, 700RU of streptavidin was immobilized on all flow cells. A 1:1 mixture of 0.4 M EDC and 0.1 M NHS was used to activate the flow cells, and 0.008 mg/mL streptavidin solution reconstituted in Acetate 5.0 buffer (GE Healthcare) was injected. Blocking of the remaining activated groups was done with a 1 M solution of ethanolamine (pH 8.5). Flow cell 1 (or 3) was used as a reference to subtract nonspecific binding, drift, and the bulk refractive index, while flow cell 2 (or 4) was further immobilized with glycol-peptide samples of varying structures. Biotinylated glycopeptides (20 nM) were dissolved in HBS-EP+ buffer and were injected to flow cell 2 (or 4) at 30 μL/min until the baseline response increased by 104 or 127 RU. The instrument was then primed using running buffer (HBS-EP+). NGF was dissolved in HBS-EP+ buffer to produce a 185 nM stock solution, which was serially diluted to produce a concentration series down to 11 nM. […] Flow cells were regenerated by 2.5 M MgCl2 at 30 μL/min for 30 seconds after injection of each protein solutions.
Surface plasmon resonance (SPR) technology was further employed to facilitate quantitative, real-time kinetic analysis of glycopeptide-NGF interaction. Streptavidin was coated on a carboxydextran CM5 sensor chip, using EDC/NHS coupling chemistry, at a relatively low density (≈700 RU) to prevent nonspecific interactions with NGF. Biotinylated glycopeptides were then immobilized on streptavidin-coated surface at normalized levels by molecular weights,^[12] […] Kinetics were monitored at 25° C. by injecting various concentrations of NGF (11-185 nM) over the surface for 240 s at 50 μL·min^−1 and recording the dissociation for 800 s before the surface was regenerated with 2.5 M solution of MgCl2. […] Further kinetic analysis was conducted using a two-state binding model for comprehensive understanding of this binding event.

Molecules are shown by their SMILES.

NGF, sequence (P01138 122-241, species assumed): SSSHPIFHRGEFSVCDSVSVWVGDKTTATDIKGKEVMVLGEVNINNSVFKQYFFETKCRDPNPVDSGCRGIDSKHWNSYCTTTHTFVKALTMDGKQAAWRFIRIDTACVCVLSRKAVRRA
nerve growth factor (NGF), sequence (P01138 122-241, species assumed): as above

As to `COC(=O)[C@@H]1C[C@@H](n2cc(CO[C@@H]3O[C@H](COS(=O)(=O)O)[C@H](OS(=O)(=O)O)[C@H](O[C@@H]4O[C@H](C(=O)O)[C@@H](O)[C@H](O)[C@H]4O)[C@H]3NC(C)=O)nn2)CN1C(=O)[C@@H]1C[C@@H](n2cc(CO[C@@H]3O[C@H](COS(=O)(=O)O)[C@H](OS(=O)(=O)O)[C@H](O[C@@H]4O[C@H](C(=O)O)[C@@H](O)[C@H](O)[C@H]4O)[C@H]3NC(C)=O)nn2)CN1C(=O)[C@@H]1C[C@@H](n2cc(CO[C@@H]3O[C@H](COS(=O)(=O)O)[C@H](OS(=O)(=O)O)[C@H](O[C@@H]4O[C@H](C(=O)O)[C@@H](O)[C@H](O)[C@H]4O)[C@H]3NC(C)=O)nn2)CN1C(=O)[C@@H]1C[C@@H](n2cc(CO[C@@H]3O[C@H](COS(=O)(=O)O)[C@H](OS(=O)(=O)O)[C@H](O[C@@H]4O[C@H](C(=O)O)[C@@H](O)[C@H](O)[C@H]4O)[C@H]3NC(C)=O)nn2)CN1C(=O)[C@@H]1C[C@@H](n2cc(CO[C@@H]3O[C@H](COS(=O)(=O)O)[C@H](OS(=O)(=O)O)[C@H](O[C@@H]4O[C@H](C(=O)O)[C@@H](O)[C@H](O)[C@H]4O)[C@H]3NC(C)=O)nn2)CN1C(=O)[C@@H]1C[C@@H](n2cc(CO[C@@H]3O[C@H](COS(=O)(=O)O)[C@H](OS(=O)(=O)O)[C@H](O[C@@H]4O[C@H](C(=O)O)[C@@H](O)[C@H](O)[C@H]4O)[C@H]3NC(C)=O)nn2)CN1C(=O)[C@@H]1C[C@@H](n2cc(CO[C@@H]3O[C@H](COS(=O)(=O)O)[C@H](OS(=O)(=O)O)[C@H](O[C@@H]4O[C@H](C(=O)O)[C@@H](O)[C@H](O)[C@H]4O)[C@H]3NC(C)=O)nn2)CN1C(=O)[C@@H]1C[C@@H](n2cc(CO[C@@H]3O[C@H](COS(=O)(=O)O)[C@H](OS(=O)(=O)O)[C@H](O[C@@H]4O[C@H](C(=O)O)[C@@H](O)[C@H](O)[C@H]4O)[C@H]3NC(C)=O)nn2)CN1C(=O)[C@@H]1C[C@@H](n2cc(CO[C@@H]3O[C@H](COS(=O)(=O)O)[C@H](OS(=O)(=O)O)[C@H](O[C@@H]4O[C@H](C(=O)O)[C@@H](O)[C@H](O)[C@H]4O)[C@H]3NC(C)=O)nn2)CN1C(=O)[C@@H]1C[C@@H](n2cc(CO[C@@H]3O[C@H](COS(=O)(=O)O)[C@H](OS(=O)(=O)O)[C@H](O[C@@H]4O[C@H](C(=O)O)[C@@H](O)[C@H](O)[C@H]4O)[C@H]3NC(C)=O)nn2)CN1C(=O)[C@@H]1C[C@@H](n2cc(CO[C@@H]3O[C@H](COS(=O)(=O)O)[C@H](OS(=O)(=O)O)[C@H](O[C@@H]4O[C@H](C(=O)O)[C@@H](O)[C@H](O)[C@H]4O)[C@H]3NC(C)=O)nn2)CN1C(=O)[C@@H]1C[C@@H](n2cc(CO[C@@H]3O[C@H](COS(=O)(=O)O)[C@H](OS(=O)(=O)O)[C@H](O[C@@H]4O[C@H](C(=O)O)[C@@H](O)[C@H](O)[C@H]4O)[C@H]3NC(C)=O)nn2)CN1C(=O)CCOCCOCCOCCOCCOCCOCCOCCOCCOCCOCCOCCOCCNC(=O)CCCC[C@@H]1SC[C@@H]2NC(=O)N[C@@H]21` [Glycopeptide 1], the “binding to NGF (ELISA)” value in test [1] was “moderate binding affinity”. Moreover, the “effect on NGF-mediated neurite outgrowth” value in the test with PC12 cells is “no effect”. Moreover, on NGF, the ka2 is listed as 3.62 (±0.04) × 10^−3 M^−1s^−1, the kd1 is given as 3.22 (±0.07) × 10^−2 s^−1 and the kd2 was 6.43 (±0.13) × 10^−4 s^−1. The ka1 on NGF (standard errors in parentheses) is recorded as 1.95 (±0.39) × 10^3 M^−1s^−1.

The record behind these values is US9879059B2, “Tailoring multivalent interactions of biopolymers with a polyproline scaffold” (Agency for Science, Technology and Research, priority 2013, dated 2018).
